Data: PMC11048033, “Dual Anti-Inflammatory and Anticancer Activity of Novel 1,5-Diaryl Pyrazole Derivatives: Molecular Modeling, Synthesis, In Vitro Activity, and Dynamics Study” (Biomedicines, 2024)

Assays:
[1] = tested on: HEPG2 (human liver) cell line; assay: MTT anticancer assay, HepG2; format: cell-based; conditions: for IC50 against HepG2: MTT
Protocol: (§1) The in vitro anticancer activity is determined by counting the viable cells that are stained with a vital dye. The MTT technique is an accurate measure of the activity of live cells using mitochondrial dehydrogenases. The target tumor cells A549 (human lung adenocarcinoma) and HEPG2 (human liver) cell lines are procured from the “National Centre for Cell Science” (NCCS, Pune). The sources of reagents like Trypsin, DMEM, Pen strip, and FBS are procured from Himedia. […] The culture medium was prepared, and the MTT assay was performed as per the general procedure described by Mosmann T. et al., [30] and the % viability of the cells was determined.
(§2) The target compounds tested for in vitro COX-2 were further checked for in vitro anti-cancer activity against A549 (lung cancer) and HepG2 (liver cancer) cell lines using MTT growth inhibition assay. The compounds were tested for cytotoxicity against both the cell lines at concentrations of 6.25, 12.5, 25, 50, and 100 µg/mL. […] Using the graph where % cell viability is plotted versus concentration, the IC50 values are determined with the help of the dose–response regression equation.

[2] = tested on: A549 (human lung adenocarcinoma) cell line; assay: MTT anticancer assay, A549; format: cell-based; conditions: for IC50 against A549: MTT
Protocol: as §1, §2

[3] = target: T1, human COX-1 (Homo sapiens, UniProt P23219); assay: In vitro COX-1 enzymatic assay (Cayman COX (human) Inhibitor Screening Assay Kit); format: biochemical; conditions: for COX-1 IC50: human COX-1
T1 construct: purchased Cayman chemicals 701230
Protocol: The ability of the compounds to inhibit COX -2 (IC50 values, µM) was determined by using a “COX (human) Inhibitor Screening Assay Kit” procured from Cayman Chemicals (catalog number 701230). With a slight modification in the method as defined in the reference, the COX-2 inhibition assay was performed. Using the percent conversion of arachidonic acid (AA) to PGH2, the enzyme activity was calculated. By enzyme immunoassay PGF2α, which is produced from PGH2 by reduction with stannous chloride, is calculated. The test compounds’ stock solutions are prepared by dissolving in a minimum amount of DMSO. Human COX-2 (10 µL) in the presence of 10 µL of heme was suspended in 0.1M Tris-HCl buffer (pH 8.0) which contains 2 mM phenol and 5 mM EDTA. This was added to various concentrations of test compounds and, on incubating the solutions at 37 °C for 5 min, 10 µL of AA solution were added. Later, the COX reaction was stopped by adding 1M HCl (50 µL) after 2 min. The intensity of the yellow color which is produced as the product of the enzymatic reaction is determined spectrophotometrically. The percent inhibition was calculated by comparing the compound treated to different control incubations. Celecoxib is utilized as the standard for the assay. The determinations are done in triplicate and the IC50 (µM) was determined using the concentration–inhibition response curve.
During the initiation of the inflammatory process, the COX enzyme plays a vital role in the progression of inflammatory response. The inflammatory mediators that arise due to the action of COX lead to the chemoattraction of neutrophils, macrophages, eosinophils, etc. Due to the involvement of COX in inflammatory diseases, inhibitors of this enzyme can help in designing effective therapeutic agents. […] This was carried out with the help of a COX (human) inhibitor screening assay kit (Item no. 701230) from Cayman chemicals. […] A test substance concentration was considered to be inhibitive when it inhibited human COX-1 or COX-2 by 50%. The compound’s selectivity was measured by its selectivity index values, derived as IC50 (COX-1)/IC50 (COX-2).

T1 sequence (P23219 24-599): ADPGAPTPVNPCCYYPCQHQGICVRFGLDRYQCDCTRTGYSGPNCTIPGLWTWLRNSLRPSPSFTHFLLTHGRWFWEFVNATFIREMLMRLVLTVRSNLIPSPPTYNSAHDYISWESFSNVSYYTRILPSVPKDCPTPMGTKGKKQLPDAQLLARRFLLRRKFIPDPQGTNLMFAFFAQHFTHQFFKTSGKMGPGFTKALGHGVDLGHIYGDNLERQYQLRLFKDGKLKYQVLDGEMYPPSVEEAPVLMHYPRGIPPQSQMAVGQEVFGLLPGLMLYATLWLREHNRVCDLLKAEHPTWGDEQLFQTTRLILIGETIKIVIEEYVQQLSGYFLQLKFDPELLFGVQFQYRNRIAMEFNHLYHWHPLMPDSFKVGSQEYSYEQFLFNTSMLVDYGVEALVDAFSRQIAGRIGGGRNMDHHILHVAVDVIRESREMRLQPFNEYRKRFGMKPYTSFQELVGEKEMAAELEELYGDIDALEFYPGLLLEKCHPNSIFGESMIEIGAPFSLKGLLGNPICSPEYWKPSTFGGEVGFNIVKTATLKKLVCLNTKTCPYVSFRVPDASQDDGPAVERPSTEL

SMILES | % cell viability ([1]; HepG2, 6.25 µg/ml) | % cell viability ([1]; HepG2, 12.5 µg/ml) | % cell viability ([1]; HepG2, 25 µg/ml) | % cell viability ([1]; HepG2, 50 µg/ml) | % cell viability ([1]; HepG2, 100 µg/ml) | IC50 against HepG2 [1] | % cell viability ([2]; A549, 6.25 µg/ml) | % cell viability ([2]; A549, 12.5 µg/ml) | % cell viability ([2]; A549, 25 µg/ml) | % cell viability ([2]; A549, 50 µg/ml) | % cell viability ([2]; A549, 100 µg/ml) | IC50 against A549 ([2]; A549) | % COX-1 Inhibition ([3]; 0.781 μg/ml) | % COX-1 Inhibition ([3]; 1.562 μg/ml) | % COX-1 Inhibition ([3]; 3.125 μg/ml) | % COX-1 Inhibition ([3]; 6.25 μg/ml) | % COX-1 Inhibition ([3]; 12.5 μg/ml) | % COX-1 Inhibition ([3]; 25 μg/ml) | % COX-1 Inhibition ([3]; 50 μg/ml) | % COX-1 Inhibition ([3]; 100 μg/ml) | further results
Cc1cc(C=NNC(=O)c2cc(-c3ccc(Br)cc3)n(-c3ccc(S(N)(=O)=O)cc3)n2)cc(C)c1OCc1ccccc1 [Compound T5, 4-(3-(2-(4-(benzyloxy)-3,5-dimethylbenzylidene) hydrazine-1-carbonyl)-5-(4-bromophenyl)-1H-pyrazol-1-yl) benzenesulfonamide] | 84.40% | 73.66% | 73.42% | 54.76% | 39.32% | 66.93 µM | 97.15% | 92.32% | 72.36% | 62.43% | 30.52% | 60.95 µM | 14.39 ± 2.17% | 21.90 ± 2.60% | 45.47 ± 1.94% | 57.14 ± 2.17% | 72.58 ± 3.09% | 76.66 ± 1.30% | 84.01 ± 1.77% | 88.49 ± 0.36% | concentration at which compound was effective (from % inhibitory values) ([1]; HepG2 cell lines): 50 µg/mL; % COX-1 Inhibition ([3]; 250 μg/ml): 91.75 ± 2.76%; COX-1 IC50 [3]: 5.596 µM
NS(=O)(=O)c1ccc(-n2nc(C(=O)NN=Cc3cccc(Oc4ccccc4)c3)cc2-c2ccc(Cl)cc2)cc1 [Compound T3, 4-(5-(4-chlorophenyl)-3-(2-(3-phenoxybenzylidene) hydrazine-1-carbonyl)-1H-pyrazol-1-yl) benzenesulfonamide] | 84.39% | 84.40% | 73.65% | 73.62% | 54.76% | > 100 µM | 95.77% | 86.16% | 60.37% | 46.16% | 24.18% | 40.14 µM | 16.22 ± 0.61% | 24.62 ± 2.13% | 49.90 ± 2.32% | 61.14 ± 3.03% | 73.08 ± 1.76% | 77.09 ± 0.66% | 85.41 ± 0.12% | 87.94 ± 0.94% | anti-cancer activity against A549 cell lines (in words) ([2]; A549): active; concentration at which compound was effective (from % inhibitory values) ([2]; A549 cell lines): 50 µg/mL; % COX-1 Inhibition ([3]; 250 μg/ml): 89.26 ± 0.71%; COX-1 IC50 [3]: 4.655 µM
